Several values for one entry are separate records, joined by “and”; a condition that tells them apart may be missing. Equal entries are not always repeated. Where two headings read alike, the source gives them in different places.
Target: HIV-1LAI envelope gp120 (Human immunodeficiency virus type 1 group M subtype B, UniProt P03377)
Type: binding
Conditions: for number of radioactive decays (counts) counted: human CD4 21-mer scan, empty control 2075; for Relative % of Control: mean of two syntheses and binding experiments ± average deviation, wild-type = 100%; for Counts per 20′ Average-background: CCR5 18-mer scan
[1] = radiolabeled HIV-1LAI gp120, background subtracted
[2] = Panel B, 15-mers and 18-mers of CD4, empty control 575
[3] = Panel D, 9-mers and 12-mers of CD4, empty control […]
[4] = STRL33 18-mer scan, background subtracted, first of two count columns
[5] = STRL33 18-mer scan, background subtracted, second of two count columns
[6] = Panel E, 9-mers and 12-mers of CD4, empty control 571
[7] = Panel C, 15-mers and 18-mers of CD4, empty control 556
[8] = Panel F, sequential alanine replacements of CD4 polypeptides, duplicate series, empty control 569
[9] = CXCR4 18-mer scan, background subtracted, empty control 0
[10] = CXCR4 18-mer scan, empty control 412

Sequence: HLTLPQALPQYAGSGNLTLAL [human CD4 281-301]
- number of radioactive decays (counts) counted: 2394 counts

Sequence: MAYQVSSPIYDINYYTSE [CCR5 (1-18) variant D2A]
- Relative % of Control (CCR5 (1-18) alanine variants): 125 ± 8%

Sequence: AVFALKARTVTFGVVTSV
- Counts per 20′ Average-background [1]: 63 counts per 20′

Sequence: LKIEDSDTYICEVED
- COUNTS of radiolabeled gp120 retained [2]: 846 counts

Sequence: VEDQKEEVQLLV
- COUNTS of radiolabeled gp120 retained [3]: 657 counts

Sequence: LMKFIRSTHWEYYAMTSF [STRL33 segment 249-266]
- radioactive counts recorded in twenty minutes [4]: 934.5 counts
- radioactive counts recorded in twenty minutes [5]: 949.5 counts

Sequence: EDQKEEVQL
- COUNTS of radiolabeled gp120 retained [3]: 564 counts

Sequence: EEVQLLVFG
- COUNTS of radiolabeled gp120 retained [3]: 3170 counts

Sequence: MEGISIYTSDNYTEEAGS
- Relative % of Control (CXCR4 (1-18) alanine variants): 88 ± 4%

Sequence: FTVEKLTGS
- COUNTS of radiolabeled gp120 retained [6]: 574 counts

Sequence: AEGISIYTSDNYTEEMGS [CXCR4 (1-18) variant M1A]
- Relative % of Control (CXCR4 (1-18) alanine variants): 118 ± 18%

Sequence: HEWVFGQVMCKSLLGIYT [STRL33 segment 93-110]
- radioactive counts recorded in twenty minutes [4]: 3391.5 counts
- radioactive counts recorded in twenty minutes [5]: 3466.5 counts

Sequence: GLTANSDTHLLQGQSLTL
- COUNTS of radiolabeled gp120 retained [2]: 572 counts

Sequence: GEQVAFSFPLAFTVE
- COUNTS of radiolabeled gp120 retained (Panel G, alanine replacements and serial truncations (Z) of CD4 polypeptides, empty control 580): 16668 counts and 13930 counts

Sequence: MDYQVSSPIYDANYYTSE
- Relative % of Control (CCR5 (1-18) alanine variants): 14 ± 1%

Sequence: SFPLAFTVEKLTGSGELW
- COUNTS of radiolabeled gp120 retained [7]: 656 counts

Sequence: MEGISIYTSDNATEEMGS
- Relative % of Control (CXCR4 (1-18) alanine variants): 28 ± 2%

Sequence: EAVQLLVFGLTANSD
- COUNTS of radiolabeled gp120 retained [8]: 14220 counts and 13213 counts

Sequence: LLVFGLTANSDTHLLQGQ
- COUNTS of radiolabeled gp120 retained [2]: 568 counts

Sequence: LQGQSLTLT
- COUNTS of radiolabeled gp120 retained [3]: 501 counts

Sequence: CYSGILKTLLRCRNEKKR
- Counts per 20′ Average-background [1]: 70 counts per 20′

Sequence: VLAFQKASSIVY
- COUNTS of radiolabeled gp120 retained [6]: 548 counts

Sequence: NQKKVEFKIDIVVLA
- COUNTS of radiolabeled gp120 retained [7]: 860 counts

Sequence: SDTHLLQGQ
- COUNTS of radiolabeled gp120 retained [3]: 526 counts

Sequence: IVILSCYCIIISKLSHSK
- radioactive counts recorded in twenty minutes [9]: 277 counts
- radioactive counts recorded in twenty minutes [10]: 689 counts

Sequence: PFWAYAGIHEWVFGQVMC
- radioactive counts recorded in twenty minutes [4]: 7262.5 counts
- radioactive counts recorded in twenty minutes [5]: 7537.5 counts

Sequence: MLILTCITVDRFIVVVKA
- radioactive counts recorded in twenty minutes [4]: 298.5 counts
- radioactive counts recorded in twenty minutes [5]: 228.5 counts

Sequence: EHDYHEDYGFSSFNDSSQ
- Binding Results For Window Length (counts bound-background), 9 (STRL33 amino terminus, 9-mer starting at the first residue of the printed sequence, background subtracted): 509 counts
- Binding Results For Window Length (counts bound-background), 12 (STRL33 amino terminus, 12-mer starting at the first residue of the printed sequence, background subtracted): 937 counts
- Binding Results For Window Length (counts bound-background), 15 (STRL33 amino terminus, 15-mer starting at the first residue of the printed sequence, background subtracted): 2235 counts
- Binding Results For Window Length (counts bound-background), 18 (STRL33 amino terminus, 18-mer starting at the first residue of the printed sequence, background subtracted): 1219 counts

Sequence: MDYQVSSPIYDINYATSE [CCR5 (1-18) variant Y15A]
- Relative % of Control (CCR5 (1-18) alanine variants): 21 ± 5%
- percentage of binding of mutant polypeptide compared to wild-type polypeptide, gp120 (CCR5 alanine mutant peptide, radiolabeled HIV-1LAI gp120): 21%

Sequence: MYLVVFVCGLVGNSLVLV [STRL33 segment 37-54]
- radioactive counts recorded in twenty minutes [4]: 168.5 counts
- radioactive counts recorded in twenty minutes [5]: 235.5 counts

Sequence: EDSDTYICEVEDQKE
- COUNTS of radiolabeled gp120 retained [2]: 815 counts

Sequence: VEFSFPLAFTVEKLTGSG
- COUNTS of radiolabeled gp120 retained [7]: 533 counts

Sequence: KKEGEQVEFSFP
- COUNTS of radiolabeled gp120 retained [6]: 598 counts

Sequence: HSSVSTESESSSFHSS
- radioactive counts recorded in twenty minutes [9]: 103 counts
- radioactive counts recorded in twenty minutes [10]: 515 counts

Sequence: DTYICEVEDQKE
- COUNTS of radiolabeled gp120 retained [3]: 720 counts

Sequence: TDKYRLHLSVADLLFVIT [CXCR4 segment 73-90]
- radioactive counts recorded in twenty minutes [9]: 92 counts
- radioactive counts recorded in twenty minutes [10]: 504 counts

Sequence: AFTVEKLTGSGE
- COUNTS of radiolabeled gp120 retained [6]: 511 counts

Sequence: THLLQGQSLTLALES
- COUNTS of radiolabeled gp120 retained [8]: 11699 counts and 8147 counts

Sequence: LLSDSGQVLLESNIKVLPTWS [human CD4 371-391]
- number of radioactive decays (counts) counted: 2375 counts

Sequence: VISLLVSLPQIIYGNVFN
- radioactive counts recorded in twenty minutes [4]: −60.5 counts
- radioactive counts recorded in twenty minutes [5]: −127.5 counts

Sequence: TDIYLLNLAISDLFFLLT [CCR5 segment 65-82]
- Counts per 20′ Average-background [1]: 38 counts per 20′

From patent US20030068615A1, “Polypeptides that bind HIV gp120 and related nucleic acids, antibodies, compositions, and methods of use” (priority 1999, published 2003)
